Measurements as given in paper PMC3871595, “Structure Based Identification and Characterization of Flavonoids That Disrupt Human Papillomavirus-16 E6 Function” (PLoS ONE, 2013).
“Also recorded” adds a separate entry of the source.

Legend:
Caski cells = test: p53/p21 immunoblot analysis in Caski cells; assay type: cell-based, human; conditions: 40 hours
Description: Caski cells, which are derived from an HPV-16 infected cervical carcinoma and express HPV-16 E6 and E7, were used to determine whether these compounds interfere with HPV-16 E6 function. Inhibition of E6 should block its ability to promote the degradation of p53 thereby increasing the levels of p53. […] These compounds were also assayed in telomerase immortalized human retinal epithelial cells (RPE-1). […] If the elevation in p53 is dependent on the inhibition of E6 by these compounds, p53 should not increase in the RPE-1 cells.
20,000 cells per cm^2 were plated in 6-well dishes. Cells were incubated for 24 hours at which time fresh media and compound were added. After 40 hours, cells were harvested, washed with cold PBS, and lysed in RIPA buffer with protease inhibitor. Each sample was separated on a 12% SDS-page gel, transferred to Immobilon-P membrane (Millipore) and blotted for the p53 (DO-1, Santa Cruz), p21 (c-19, Santa Cruz), and actin (A2066, Sigma). Protein quantification was performed with the Fujifilm LAS-4000 Multifunctional Imaging System. The signal intensity was measured for each band on an immunoblot, normalized to the loading control, and the fold increase was determined in relation to the appropriate DMSO treated control. RNA was isolated from these cells using Trizol Reagent (Invitrogen 15596-026). cDNA was generated using the Improm-II Reverse Transcription System (Promega A3801). qPCR was performed as described in the protocol for SsoFast EvaGreen supermix (BioRad 172-5023) using an BioRad CFX96 real-time PCR machine. Melting curves for each reaction were obtained. Each sample was assayed in triplicate and every plate contained a 5-point cDNA dilution course to calculate amplification efficiency for each primer pair. The Pfaffl method was used to determine the change in transcript levels relative to the DMSO and normalized to GAPDH.

[1] = system: HPV-18 positive HeLa cells; test: cell viability (MTS, Celltiter 96 AQueous) HeLa; assay type: cell-based, human; conditions: 48 to 96 hours, relative to DMSO
Description: HPV-18 positive HeLa cells and two additional control cell lines, C33a, a cell line derived from an HPV-negative human cervical cancer isolate, and HaCat, a spontaneously immortalized human keratinocyte cell line, were used to assess compounds for their impact on cell growth and viability. All cells were incubated for 48 to 96 hours with increasing doses of compound. Cell viability was measured by MTS based assay and % viability quantified relative to cells treated with DMSO. […] This is in agreement with the lack of specificity for HPV-dependent cells observed in the p53 western results.
(§1) For cell viability, 12,000 cells per cm^2 were plated in 96-well dishes 24 hours prior to drug addition. Fresh media and compound were added. Plates were read after 72-96 hours. Relative cell viability was assayed as directed in the Celltiter 96 AQueous one solution assay (Promega). For caspase activity, plates were assayed after 4, 8, 12, 24, or 48 hours as described for the Caspase-Glo 3/7 assay (Promega).

E6/E7 HFKs = test: cell viability (MTS, Celltiter 96 AQueous) E6/E7 HFKs; assay type: cell-based, human; conditions: 48 to 96 hours, relative to DMSO
[2] = system: Caski, HeLa, RPE-1, C33a and HaCat cells; test: cell number and morphology (bright field microscopy); assay type: cell-based, human; conditions: 72 hours
caspases 3 and 7 = test: Caspase-Glo 3/7 apoptosis assay; assay type: cell-based, human; conditions: 4 – 48 hours
Description: This was specific to Caski cells and was not observed in RPE-1, HeLa cells, or the HPV negative control cell lines C33a and HaCat (Figures S2A,B ). […] As observed in the viability assay, this occurred in both the HPV positive and negative cell lines. […] These cell lines were also assayed for apoptosis.
as §1

[3] = system: HPV-16 E6 mediated p53 degradation; test: in vitro HPV-16 E6 mediated p53 degradation assay; assay type: biochemical
Description: In vitro expressed p53 was incubated in rabbit reticulocyte lysate in the presence or absence of in vitro expressed HPV16 E6. p53 levels were reduced in reaction containing E6 proteins (Figure 8 ).
Control reactions (no DNA, p53 alone) were incubated with 1 µL wheat germ extract and 2% DMSO in reaction buffer. In vitro translated p53 and rabbit reticulocyte lysate (RRL, Promega) were added to all reactions except the no DNA control reaction to which wheat germ extract was added instead of p53. Reactions were incubated for 3 hrs at 30°C and stopped by addition of 6X reducing SDS sample buffer and heating at 95°C for 5 min. Each reaction was loaded onto a 10% SDS-PAGE gel and transferred onto PVDF (0.45 µm). p53 and 16E6 were visualized using monoclonal p53 (Pab1801, 1:1000), monoclonal 16E6 (813, Arbor Vita Corporation, 1:4000) antibody and anti-mouse HRP-labeled secondary antibody (1:2000, Sigma-Aldrich).

[4] = solubility in aqueous SPR buffers; assay type: physicochemical; conditions: for aqueous solubility (in words): simple aqueous solution
[5] = 100 µM compound pre-incubated with E6

| SMILES | p21^Cip1/Waf1 protein levels (Caski cells) | p53 protein levels (Caski cells) | cell growth and viability [1] | cell growth and viability (E6/E7 HFKs) | number of cells per well [2] | caspase 3 and 7 activity (caspases 3 and 7) | effect on E6 mediated p53 degradation [3, 5] | solubility ([4]; aqueous SPR buffers, read-out: concentration soluble in the appropriate buffers) | aqueous solubility (in words) [4] | cell morphology ([2]; luteolin @ 50µM) | effect on E6 mediated p53 degradation ([3]; 10 µM compound pre-incubated with E6) |
| --- | --- | --- | --- | --- | --- | --- | --- | --- | --- | --- | --- |
| O=c1cc(-c2ccc(O)c(O)c2)oc2cc(O)cc(O)c12 [luteolin, reference compound] | concomitant induction | increased p53 levels | potent inhibitor of Caski, E6/E7 HFKs, and HeLa growth | potent inhibitor of Caski, E6/E7 HFKs, and HeLa growth | dramatic decrease in the number of cells per well | did not observe increased caspase activity | decrease in p53 was not observed | < 20 µM | poor solubility | – | – |
| COc1cccc(-c2cc(=O)c3cc(-c4nnn[nH]4)ccc3o2)c1 [CAF-24] | concomitant induction | increased p53 levels | selectively inhibited growth | selectively inhibited growth | decreased Caski and HeLa cell numbers | did not observe increased caspase activity | stabilized p53 | – | poor solubility; also recorded: limited aqueous solubility | no change in cell morphology | stabilized p53 |
